# Results taken from ChEMBL document CHEMBL1201862, “PubChem BioAssay data set” (2004).
# Activity calls are given as the source filed them.
# Key:
# [1] = target: T1, Kappa-type opioid receptor (Homo sapiens, UniProt P41145); assay: kappa opioid receptor blockers, image-based, SAR follow-up (AID 2348); format: functional
# [2] = target: T2, Delta-type opioid receptor (Homo sapiens, UniProt P41143); assay: delta opioid receptor blockers – image-based, SAR follow-up (AID 2357); format: functional
# Mu-type opioid receptor [3] = target: T3, Mu-type opioid receptor (Homo sapiens, UniProt P35372); assay: HTS Image-Based Screen for Agonists of the MOR Receptor. [Related pubchem assays (depositor defined):AID1777, AID1785, AID1786, AID2133]; format: functional
# [4] = target: T2, Delta-type opioid receptor; assay: HTS Image-Based Screen for Antagonists of the DOR Receptor. [Related pubchem assays (depositor defined):AID1777, AID1785, AID1786, AID2133]; format: functional
# [5] = target: T1, Kappa-type opioid receptor; assay: kappa opioid receptor activation potency – imaging, image-based, SAR follow-up (AID 2359); format: functional
# [6] = target: T1, Kappa-type opioid receptor; format: functional
# Beta-galactosidase [7] = target: T4, Beta-galactosidase (Escherichia coli, UniProt Q8VNN2); format: functional
# [8] = target: T2, Delta-type opioid receptor; assay: HTS Image-Based Screen for Agonists of the DOR Receptor. [Related pubchem assays (depositor defined):AID1777, AID1786, AID2133]; format: functional
# [9] = target: T2, Delta-type opioid receptor; assay: DOR agonists, SAR follow-up, image-based (AID 2370); format: functional
# Mu-type opioid receptor [10] = target: T3, Mu-type opioid receptor; assay: mu opioid receptor blockers – image-based, SAR follow-up (AID 2420); format: functional;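 note: compounds added before stimulation of receptor with agonist DAMGO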
# [11] = target: T1, Kappa-type opioid receptor; assay: kappa opioid receptor blockers, cell-based, luminescence, beta-arrestin, SAR follow-up (AID 2285); format: functional
# [12] = target: T1, Kappa-type opioid receptor; format: functional; remark: listed apart in the source
# Mu-type opioid receptor [13] = target: T3, Mu-type opioid receptor; assay: mu opioid receptor activators, image-based, SAR follow-up (AID 2352); format: functional
# Hexokinase-1 = Hexokinase-1 (Homo sapiens, UniProt P19367); assay: HK1 enzyme activation by HKDC1 hits – biochemical, selectivity assay for HKDC1 activator project, dose response (AID 504762); format: functional
# [14] = decrease of insulin promoter-GFP reporter – imaging, high-content screening, mouse beta cells (AID 1628); format: functional; conditions: MIN6
# Beta-galactosidase [15] = target: T4, Beta-galactosidase; assay: PubChem AID 485352; format: functional
# [16] = target: T5, Type-1 angiotensin II receptor (Homo sapiens, UniProt P30556); assay: antagonism of angiotensin II type 1 receptor – cell-based, uHTS hits, selectivity assay for APJ receptor antagonist project, dose response (AID 463214); format: functional;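 note: antagonist potency against angiotensin II stimulated AT1 response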
# T5 sequence (P30556 whole entry): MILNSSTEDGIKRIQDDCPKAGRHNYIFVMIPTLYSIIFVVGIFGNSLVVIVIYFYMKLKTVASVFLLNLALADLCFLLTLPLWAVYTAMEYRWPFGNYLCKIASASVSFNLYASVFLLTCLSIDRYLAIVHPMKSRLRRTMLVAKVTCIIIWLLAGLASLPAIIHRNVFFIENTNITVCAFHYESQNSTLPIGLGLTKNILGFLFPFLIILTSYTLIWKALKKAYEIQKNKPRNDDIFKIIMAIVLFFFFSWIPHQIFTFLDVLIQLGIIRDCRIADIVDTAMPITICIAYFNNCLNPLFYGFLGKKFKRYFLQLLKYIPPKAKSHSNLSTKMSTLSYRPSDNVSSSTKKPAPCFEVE
# [17] = Trypanosoma cruzi growth suppression in host cells – NIH3T3 host cells, beta-gal luminescence, confirmation (AID 2044); format: functional, cell-based;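 note: intracellular parasites grown in NIH/3T3 mouse fibroblasts as host cells; luminescent beta-galactosidase reporter signal from transgenic T. cruzi replicating inside host cells; inhibitors lower the luminescence signal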
# [18] = MIN6 cell viability loss – mouse insulinoma, cytotoxicity control, dose response (AID 2122); format: functional;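 note: confirmatory high-throughput counterscreen run to flag cytotoxic compounds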
# [19] = NIH3T3 cell viability loss – ATP luminescence, mouse fibroblasts, counter-screen, dose response (AID 2010); format: functional, cell-based;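 note: cells exposed to compound for about 90 hours before reading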
# Hexokinase HKDC1 = target: T6, Hexokinase HKDC1 (Homo sapiens, UniProt Q2TB90); assay: activation of HKDC1 glucose phosphorylation – biochemical, W721R variant, dose response (AID 504730); format: functional
# T6 sequence (Q2TB90 whole entry): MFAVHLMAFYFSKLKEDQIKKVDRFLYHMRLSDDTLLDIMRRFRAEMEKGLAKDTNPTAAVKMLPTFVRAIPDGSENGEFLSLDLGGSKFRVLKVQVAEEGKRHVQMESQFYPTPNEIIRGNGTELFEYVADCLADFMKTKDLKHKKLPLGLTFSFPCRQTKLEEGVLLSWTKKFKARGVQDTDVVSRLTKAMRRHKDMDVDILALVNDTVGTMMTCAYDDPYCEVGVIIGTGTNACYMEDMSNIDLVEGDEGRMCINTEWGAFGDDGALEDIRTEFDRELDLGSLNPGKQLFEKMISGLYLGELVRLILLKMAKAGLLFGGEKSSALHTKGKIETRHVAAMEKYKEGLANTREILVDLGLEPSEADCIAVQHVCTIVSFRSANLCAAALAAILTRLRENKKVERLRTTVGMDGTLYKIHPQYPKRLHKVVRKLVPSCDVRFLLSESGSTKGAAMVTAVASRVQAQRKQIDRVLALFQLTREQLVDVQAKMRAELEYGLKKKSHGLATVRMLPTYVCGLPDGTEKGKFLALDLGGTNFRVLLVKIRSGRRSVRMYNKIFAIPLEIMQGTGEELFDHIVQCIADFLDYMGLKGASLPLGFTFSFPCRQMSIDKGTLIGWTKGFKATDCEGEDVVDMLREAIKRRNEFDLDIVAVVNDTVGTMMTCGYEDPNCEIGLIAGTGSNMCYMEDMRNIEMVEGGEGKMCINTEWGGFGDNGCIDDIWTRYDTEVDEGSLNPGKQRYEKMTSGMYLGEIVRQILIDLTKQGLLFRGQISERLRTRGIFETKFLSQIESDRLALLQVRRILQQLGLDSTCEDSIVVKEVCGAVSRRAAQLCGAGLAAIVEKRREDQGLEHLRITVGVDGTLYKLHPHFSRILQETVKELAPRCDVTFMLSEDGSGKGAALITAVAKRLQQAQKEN
# [20] = target: T7, Dual specificity protein phosphatase 3 (Homo sapiens, UniProt P51452); assay: VHR1 phosphatase inhibitors, primary screen, biochemical, absorbance, uHTS (AID 1654)
# [21] = target: Dual specificity protein phosphatase 6 (Rattus norvegicus, UniProt Q64346); assay: inhibition of rat DUSP6 enzyme activity – biochemical, in vitro, primary screen (AID 425)
# [22] = target: T7, Dual specificity protein phosphatase 3; assay: VHR1 phosphatase inhibitors, biochemical (AID 1878)
# [23] = target: Induced myeloid leukemia cell differentiation protein Mcl-1 (Homo sapiens, UniProt Q07820); format: functional
# [24] = target: T8, Runt-related transcription factor 1/Core-binding factor subunit beta (Homo sapiens, UniProt Q01196+Q13951); assay: Runt domain/CBFb-SMMHC interaction disruptors – biochemical, TR-FRET (AID 1438); format: protein assay
# Troponin, cardiac muscle = Troponin, cardiac muscle (Homo sapiens, UniProt P19429+P45379+P63316); assay: Fluorescence-based biochemical high throughput dose response assay for activators of the calcium sensitivity of cardiac Regulated Thin Filaments (RTF). [Related pubchem assays (depositor defined):AID493008, AID493018, AID504382, AID504383]; format: protein-complex assay
# [25] = target: T9, RNA-binding protein pos-1 (Caenorhabditis elegans, UniProt G5EF15); assay: disruptors of C. elegans POS-1 RNA interaction – biochemical, fluorescence polarization, dose response (AID 1964);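 note: purified POS-1 fused to maltose binding protein made in E. coli; potency of compounds blocking POS-1 binding to fluorescent RNA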
# T9 sequence (G5EF15 whole entry): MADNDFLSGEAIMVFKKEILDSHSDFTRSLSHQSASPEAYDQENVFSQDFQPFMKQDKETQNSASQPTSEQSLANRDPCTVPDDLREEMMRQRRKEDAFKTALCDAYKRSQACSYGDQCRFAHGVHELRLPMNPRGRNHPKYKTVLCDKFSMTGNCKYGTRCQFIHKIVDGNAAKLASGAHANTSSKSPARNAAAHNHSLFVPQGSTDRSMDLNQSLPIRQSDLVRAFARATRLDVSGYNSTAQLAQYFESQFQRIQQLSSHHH
# [26] = target: T10, Zinc finger protein mex-5 (Caenorhabditis elegans, UniProt Q9XUB2); assay: potency of MEX-5 RNA-binding blockers – biochemical, C. elegans, fluorescence polarization, dose response (AID 1960)
# T10 sequence (Q9XUB2 whole entry): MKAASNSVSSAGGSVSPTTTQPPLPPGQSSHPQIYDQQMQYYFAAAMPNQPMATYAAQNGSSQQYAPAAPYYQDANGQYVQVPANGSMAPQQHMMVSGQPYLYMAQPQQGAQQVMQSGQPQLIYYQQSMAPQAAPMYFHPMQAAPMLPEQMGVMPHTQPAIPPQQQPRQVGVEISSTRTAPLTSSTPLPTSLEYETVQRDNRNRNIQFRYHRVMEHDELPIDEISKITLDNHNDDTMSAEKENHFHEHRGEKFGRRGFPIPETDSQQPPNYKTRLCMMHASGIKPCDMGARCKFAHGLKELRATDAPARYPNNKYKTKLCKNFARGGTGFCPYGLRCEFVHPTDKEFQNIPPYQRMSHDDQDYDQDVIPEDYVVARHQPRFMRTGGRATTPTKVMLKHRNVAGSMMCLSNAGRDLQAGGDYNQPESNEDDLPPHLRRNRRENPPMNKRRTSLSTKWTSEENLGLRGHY
# [27] = target: T8, Runt-related transcription factor 1/Core-binding factor subunit beta; assay: disruptors of Runt domain/CBFb-SMMHC interaction – biochemical, FRET, Cerulean-Runt, Venus-CBFb-SMMHC, uHTS, […] (AID 1434); format: protein assay
# SUMO-activating enzyme [28] = target: T11, SUMO-activating enzyme (Homo sapiens, UniProt Q9UBT2); assay: blockers of UBC9-mediated SUMO conjugation – biochemical, AlphaScreen, SUMOylation inhibitor project, confirmation (AID 2018); format: functional
# Streptococcus = assay: GAS UMAA2166 growth inhibition – luminescence, BacTiterGlo, counter-screen for streptokinase expression inhibitor project, dose response (AID 1915); format: functional, organism-based;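 note: potency for reduction of bacterial viability or growth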
# cells [29] = format: functional, cell-based
# SUMO-activating enzyme [30] = target: T11, SUMO-activating enzyme; assay: blockers of SAE1/SAE2–UBC9 SUMO transfer – biochemical, HTRF, uHTS, primary screen (AID 2006); format: protein-complex assay
# Albumin = Albumin (Bos taurus, UniProt P02769); assay: Counterscreen for inhibitors of T-cell receptor (TCR)-CD3 interaction: Fluorescence-based biochemical high throughput dose response assay to identify inhibitors of T-cell receptor (TCR)-CD3 interaction using a TAMRA-labeled BSA probe.; format: functional
# [31] = Luminescence Cell-Based Dose Retest to Confirm Inhibitors of Cancer Stem Cells. [Related pubchem assays (depositor defined):AID2717, AID2721]; format: functional; conditions: Homo sapiens
# INS1 = assay: INS-1E survival protection against cytokine death – cell-based, luminescence, retest, dose response (AID 449756); format: functional; conditions: Rattus norvegicus;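 note: cell death triggered by IL-1 beta plus TNF-alpha plus IFN-gamma mixture; protective hits raise ATP signal compared with cytokine alone wells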
# cells [32] = format: functional, cell-based; remark: listed apart in the source
# [33] = system: Streptococcus sp. 'group A'; assay: Streptococcus pyogenes SK(-)GAS viability under kanamycin – luminescence, BacTiterGlo, confirmation, counter-screen for streptokinase expression inhibitor project, dose response (AID 1900); format: functional, organism-based
smiles,measurement,setting,value
CCOc1ccc(C(=O)NC2CC3CCCC(C2)N3Cc2ccccc2)cc1 (centres undefined),IC50,[1],> 32 µM (inactive)
same,IC50,[2],> 32 µM (inactive)
same,EC50,Mu-type opioid receptor [3],> 32 µM (inactive)
same,IC50,[4],> 32 µM (inactive)
same,EC50,[5],> 32 µM (inactive)
same,IC50,[6],14.8 µM
same,EC50,Beta-galactosidase [7],> 31.5 µM (inactive)
same,EC50,[8],> 32 µM (inactive)
same,EC50,[9],> 32 µM (inactive)
same,IC50,Mu-type opioid receptor [10],> 32 µM (inactive)
same,IC50,[11],> 10 µM (inactive)
same,IC50,[12],7.52 µM (active)
same,EC50,Mu-type opioid receptor [13],> 32 µM (inactive)
Cc1ccc(N=Nc2ccc(O)c3ncccc23)cc1C,EC50,Hexokinase-1,> 80 µM (inactive)
same,IC50,[14],2.41 µM (active)
same,EC50,Beta-galactosidase [15],> 40 µM (inactive)
same,IC50,[16],35.3 µM (not active)
same,EC50,[17],1.13 µM (active)
same,IC50,[18],1.66 µM (active)
same,EC50,[19],> 60 µM (inconclusive)
same,EC50,Hexokinase HKDC1,21.7 µM (inactive)
Cc1cc2nc(-c3ccc(SCc4ccc(C(=O)O)cc4)nc3)[nH]c2cc1C,IC50,[20],13.9 µM (active)
same,IC50,[21],25.8 µM (active)
same,IC50,[22],5.73 µM (active)
same,IC50,[23],7.97 µM (active)
CC(=O)c1ccc2cccc3c2c1NC(C)=N3,IC50,[24],> 100 µM (inactive)
same,EC50,"Troponin, cardiac muscle",17.3 µM (inactive)
same,EC50,[25],9.79 µM (active)
same,EC50,[26],6.57 µM (active)
same,IC50,[27],3.05 µM (active)
O=c1c2ccccc2nc(COc2ccccc2)n1/N=C/c1cc([N+](=O)[O-])ccc1O,IC50,SUMO-activating enzyme [28],990 nM (active)
same,EC50,Streptococcus,4.65 µM (active)
same,EC50,cells [29],22.8 µM (active)
same,IC50,SUMO-activating enzyme [30],32.1 µM (active)
same,IC50,Albumin,> 94.1 µM (inactive)
same,AC50,[31],10.2 µM (active)
same,AC50,INS1,3.74 µM (active)
same,EC50,cells [32],24.3 µM (active)
same,EC50,[33],5.71 µM (active)
